Measured values as given in patent US7868020B2, “Quinolynylmethylimidizoles as therapeutic agents” (Allergan, Inc., priority 2007, dated 2011).

Experiments:
Alpha 1A = biological target: T1, Alpha 1A (Homo sapiens, UniProt P35348); experiment: RSAT assay, Alpha 1A receptor; format: cell-based; details: for EC50: RSAT, transfected NIH-3T3 cells; for Alpha 1A (IA) intrinsic activity: ratio of maximal effect of drug to maximal effect of standard full agonist
T1 construct: expressed in transfected cells; host or cells: NIH-3T3
T1 sequence (P35348 1-466): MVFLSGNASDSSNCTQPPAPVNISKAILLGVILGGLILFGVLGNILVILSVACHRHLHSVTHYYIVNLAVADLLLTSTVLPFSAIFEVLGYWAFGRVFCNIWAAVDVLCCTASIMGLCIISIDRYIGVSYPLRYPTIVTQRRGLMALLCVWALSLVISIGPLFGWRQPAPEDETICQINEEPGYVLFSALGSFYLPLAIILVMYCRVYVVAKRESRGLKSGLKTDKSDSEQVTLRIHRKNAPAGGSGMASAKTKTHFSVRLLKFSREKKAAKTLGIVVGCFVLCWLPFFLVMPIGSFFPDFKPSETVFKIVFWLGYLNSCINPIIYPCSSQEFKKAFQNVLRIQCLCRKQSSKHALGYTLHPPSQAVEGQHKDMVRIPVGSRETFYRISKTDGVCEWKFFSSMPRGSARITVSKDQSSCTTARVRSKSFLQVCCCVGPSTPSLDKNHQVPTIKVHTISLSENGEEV
Procedure: (§1) The RSAT assay measures a receptor-mediated loss of contact inhibition that results in selective proliferation of receptor-containing cells in a mixed population of confluent cells. The increase in cell number is assessed with an appropriate transfected marker gene such as […]-galactosidase, the activity of which can be easily measured in a 96-well format. Receptors that activate the G protein, Gq, elicit this response. Alpha2 receptors, which normally couple to Gi, activate the RSAT response when coexpressed with a hybrid Gq protein that has a Gi receptor recognition domain, called Gq/i5.
(§2) NIH-3T3 cells are plated at a density of 2×10^6 cells in 15 cm dishes and maintained in Dulbecco's modified Eagle's medium supplemented with 10% calf serum. One day later, cells are cotransfected by calcium phosphate precipitation with mammalian expression plasmids encoding p-SV-β-galactosidase (5-10 μg), receptor (1-2 μg) and G protein (1-2 μg). 40 μg salmon sperm DNA may also be included in the transfection mixture. Fresh media is added on the following day and 1-2 days later, cells are harvested and frozen in 50 assay aliquots. Cells are thawed and 100 μl added to 100 μl aliquots of various concentrations of drugs in triplicate in 96-well dishes. Incubations continue 72-96 hr at 37° C. After washing with phosphate-buffered saline, β-galactosidase enzyme activity is determined by adding 200 μl of the chromogenic substrate (consisting of 3.5 mM o-nitrophenyl-β-D-galactopyranoside and 0.5% nonidet P-40 in phosphate buffered saline), incubating overnight at 30° C. and measuring optical density at 420 nm. The absorbance is a measure of enzyme activity, which depends on cell number and reflects a receptor-mediated cell proliferation. The efficacy or intrinsic activity is calculated as a ratio of the maximal effect of the drug to the maximal effect of a standard full agonist for each receptor subtype. Brimonidine, also called UK14304, the chemical structure of which is shown below, is used as the standard agonist for the alpha2A, alpha2B and alpha2C receptors. The EC50 is the concentration at which the drug effect is half of its maximal effect.
(§3) The results of the RSAT assay with several exemplary compounds of the invention are disclosed in Table 1 above together with the chemical formulas of these exemplary compounds. EC50 values are nanomolar. NA stands for “not active” at concentrations less than 10 micromolar. IA stands for “intrinsic activity.”

Alpha 2B = biological target: T2, Alpha 2B (Homo sapiens, UniProt P18089); experiment: RSAT assay, Alpha 2B receptor; format: cell-based; details: for EC50: RSAT, transfected NIH-3T3 cells, coexpressed Gq/i5; for Alpha 2B (IA) intrinsic activity: ratio of maximal effect to that of standard full agonist brimonidine
T2 construct: expressed in transfected cells; host or cells: NIH-3T3
T2 sequence (P18089 1-450): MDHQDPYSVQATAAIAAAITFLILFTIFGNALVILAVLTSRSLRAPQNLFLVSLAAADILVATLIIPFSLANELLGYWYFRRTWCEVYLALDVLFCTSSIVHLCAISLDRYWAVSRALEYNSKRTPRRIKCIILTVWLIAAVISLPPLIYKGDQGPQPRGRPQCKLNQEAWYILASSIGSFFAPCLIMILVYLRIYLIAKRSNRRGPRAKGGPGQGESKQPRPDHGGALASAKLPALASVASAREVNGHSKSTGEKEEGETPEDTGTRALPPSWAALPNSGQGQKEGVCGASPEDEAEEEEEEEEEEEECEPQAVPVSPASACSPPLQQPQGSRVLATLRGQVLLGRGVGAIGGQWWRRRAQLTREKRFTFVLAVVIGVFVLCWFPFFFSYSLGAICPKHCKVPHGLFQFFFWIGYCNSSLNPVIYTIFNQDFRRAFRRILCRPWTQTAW
Procedure: as §1, §2, §3

Alpha 2C = biological target: T3, Alpha 2C (Homo sapiens, UniProt P18825); experiment: RSAT assay, Alpha 2C receptor; format: cell-based; details: for EC50: RSAT, transfected NIH-3T3 cells, coexpressed Gq/i5; for Alpha 2C (IA) intrinsic activity: ratio of maximal effect to that of standard full agonist brimonidine
T3 construct: expressed in transfected cells; host or cells: NIH-3T3
T3 sequence (P18825 1-462): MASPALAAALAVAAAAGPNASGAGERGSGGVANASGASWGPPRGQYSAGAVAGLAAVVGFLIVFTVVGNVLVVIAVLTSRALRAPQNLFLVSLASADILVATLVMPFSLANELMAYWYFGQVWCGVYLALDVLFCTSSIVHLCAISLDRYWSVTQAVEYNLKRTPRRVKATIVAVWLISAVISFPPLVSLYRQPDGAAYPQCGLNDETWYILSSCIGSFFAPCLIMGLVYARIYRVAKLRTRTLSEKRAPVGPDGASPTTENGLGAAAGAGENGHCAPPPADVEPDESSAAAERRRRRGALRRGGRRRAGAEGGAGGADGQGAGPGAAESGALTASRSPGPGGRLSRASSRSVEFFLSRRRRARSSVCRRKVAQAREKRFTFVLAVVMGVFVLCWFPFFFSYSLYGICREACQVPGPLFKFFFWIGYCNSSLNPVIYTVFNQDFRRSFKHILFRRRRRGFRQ
Procedure: as §1, §2, §3

Alpha 2A = biological target: T4, Alpha 2A (Homo sapiens, UniProt P08913); experiment: RSAT assay, Alpha 2A receptor; format: cell-based; details: transfected NIH-3T3 cells, coexpressed Gq/i5
T4 construct: expressed in transfected cells; host or cells: NIH-3T3
T4 sequence (P08913 1-465): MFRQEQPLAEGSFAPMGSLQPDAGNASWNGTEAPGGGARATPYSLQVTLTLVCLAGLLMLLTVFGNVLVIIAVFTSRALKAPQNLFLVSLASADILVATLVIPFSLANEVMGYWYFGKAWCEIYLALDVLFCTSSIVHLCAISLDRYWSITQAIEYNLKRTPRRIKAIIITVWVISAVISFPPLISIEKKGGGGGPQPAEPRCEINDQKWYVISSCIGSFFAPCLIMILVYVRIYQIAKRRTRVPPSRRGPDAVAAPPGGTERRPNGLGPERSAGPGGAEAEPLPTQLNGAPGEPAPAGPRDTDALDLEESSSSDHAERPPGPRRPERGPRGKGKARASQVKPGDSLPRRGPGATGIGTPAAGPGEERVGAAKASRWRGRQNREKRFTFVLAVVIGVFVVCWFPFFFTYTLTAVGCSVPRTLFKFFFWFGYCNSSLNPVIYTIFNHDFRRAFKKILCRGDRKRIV
Procedure: as §1
NIH-3T3 cells are plated at a density of 2×10^6 cells in 15 cm dishes and maintained in Dulbecco's modified Eagle's medium supplemented with 10% calf serum. […] After washing with phosphate-buffered saline, β-galactosidase enzyme activity is determined by adding 200 μl of the chromogenic substrate (consisting of 3.5 mM o-nitrophenyl-β-D-galactopyranoside and 0.5% nonidet P-40 in phosphate buffered saline), incubating overnight at 30° C. and measuring optical density at 420 nm. The absorbance is a measure of enzyme activity, which depends on cell number and reflects a receptor-mediated cell proliferation. The efficacy or intrinsic activity is calculated as a ratio of the maximal effect of the drug to the maximal effect of a standard full agonist for each receptor subtype. […]

[1] = in vitro assay (not specified) of separated enantiomers; details: enantiomers separated by chiral HPLC
Description: Compound (6) was separated by chiral HPLC: […]® OD with 85% hexane and 15% ethanol at rt. The (+)-7-(5-methyl-1H-imidazol-4-ylmethyl)-5,6,7,8-tetrahydro-quinoline (8) corresponding to the second eluting peak was active in an in vitro assay.

EC50 (Alpha 1A) [nM]	Alpha 1A (IA) intrinsic activity (Alpha 1A)	EC50 (Alpha 2B) [nM]	Alpha 2B (IA) intrinsic activity (Alpha 2B)	EC50 (Alpha 2C) [nM]	Alpha 2C (IA) intrinsic activity (Alpha 2C)	EC50 (Alpha 2A) [nM]	SMILES	activity in an in vitro assay [1]
3340	0.66	57	0.32	207	0.63	> 10000	Cc1[nH]cnc1CC1CCc2cccnc2C1 (stereo not shown) [drawing 15]	
876	0.66	37	0.7	366	0.47	> 10000	Cc1[nH]cnc1CC1CCc2cccnc2C1 (stereo not shown) [drawing 16]	
							Cc1[nH]cnc1CC1CCc2cccnc2C1 (single isomer, unassigned; (+)) [Compound 8, (+)-7-(5-methyl-1H-imidazol-4-ylmethyl)-5,6,7,8-tetrahydro-quinoline]	active
							Cc1[nH]cnc1CC1CCc2cccnc2C1 (single isomer, unassigned; (-)) [Compound 7, (−)-7-(5-methyl-1H-imidazol-4-ylmethyl)-5,6,7,8-tetrahydro-quinoline]	inactive
